pIC50: −log10 of the molar value.
Legend:
WM266.4 melanoma cells = assay: SRB Cell Proliferation Assay (SRB GI50); type: cell-based; conditions: Homo sapiens, WM 266-4, 144 h, 6 days growth
Method: Biological Methods—SRB Cell Proliferation Assay (SRB GI50)
Cultures of WM266.4 melanoma cells are routinely cultured in DMEM/10% foetal bovine serum, at 37° C., in 5% CO2 water saturated atmosphere. Cultures are maintained in exponential growth phase by sub-culturing before having become confluent (3-5 day intervals). Single cell suspensions are prepared by harvesting an 80 cm^2 tissue culture flask with 5 mL commercial trypsin EDTA. After 5 minutes, the detached cells are mixed with 5 mL fully complemented culture medium and centrifugally pelleted (1000 rpm for 7 minutes). After aspirating the supernatant, the cell pellet is re-suspended in 10 mL fresh medium and the cells fully disaggregated by drawing the whole volume up/down 5 times through a 19-gauge needle. The concentration of the cells is determined using a haemocytometer (1/10 dilution). A suitable volume to give at least a 2-fold excess for the number of tests being conducted, typically 100-200 mL, is prepared by diluting the cell suspension to 10,000/mL, and 100 μL/well dispensed into 96 well plates using a programmable 8-channel peristaltic pump, giving 1000 cells/well, leaving column 12 blank. The plates are returned to the incubator for 24 hours to allow the cells to re-attach.
The compounds being tested are prepared at 20 mM in dimethylsulphoxide. Aliquots (200 μL) are diluted into 20 mL culture medium giving 200 μM, and 10 serial dilutions of 3× performed by transferring 5 mL to 10 mL. Aliquots (100 μL) of each dilution are added to the wells, using an 8-channel pipettor, thus performing a final further 2× dilution, and giving doses ranging from 100 μM to 0.005 μM. Column 11 receives plain culture medium only. Each compound is tested in quadruplicate, each replicate being the average of four wells, and two plates per compound.
After a further 6 days growth, the plates are emptied, and the cells are fixed in 10% trichloroacteic acid for 10 minutes on ice. After thorough rinsing in running tap water, the plates are dried, and stained by adding 50 μL of a solution of 0.1% sulphorhodamine-B in 1% acetic acid, for 10 minutes at room temperature. The stain is poured out and the plates thoroughly rinsed under a stream of 1% acetic acid, thus removing unbound stain, and dried. The bound stain is taken into solution by addition of 150 μL Tris buffer pH 8, followed by 10 minutes on a plate-shaker (approximately 500 rpm). The absorbance at 540 nm in each well (being proportional to the number of cells present) is determined using a plate reader.
After averaging the results in rows A-D and E-H, the blank value (row 12) is subtracted, and results expressed as percentage of the untreated value (row 11). […] The GI50 generated by this procedure is the concentration of the drug that produces a percentage control A540 midway between the saturation, and zero-effect plateaus.

B-RAF = B-RAF (Homo sapiens, UniProt P15056, V600E); assay: DELFIA Kinase Assay; type: biochemical; conditions: 100 μM ATP
Method: Biological Methods—DELFIA Kinase Assay
Compounds were assessed by a kinase assay performed according to the following protocol.
DELFIA Kinase Buffer (DKB):
DKB1 (DKB with B-RAF and MEK Protein):
Combine 4950 μL of DKB and 50 μL of 2.5 mg/ml GST-MEK stock (to give […] of MEK per 40 μL). Then add 22.5 μL of B-RAF to give ˜0.2 μL of B-RAF per 40 μL.
DKB2 (DKB with MEK Protein):
Combine 4950 μL of DKB and 50 μL of 2.5 mg/ml GST-MEK stock (to give 1 mg of MEK per 40 μL). Use 500 μL of this for the blow out (BO) and the empty vector (EV) control.
100 mM stock, dilute to 500 μM to give 100 μM final concentration in assay.
Inhibitors (Test Compounds):
Phospho-MEK½ CST #9121S diluted 1:1000 in DELFIA assay buffer (AB). Preincubate antibody in the AB for 30 minutes at room temperature prior to use.
Anti-rabbit-Eur labelled secondary Perkin Elmer #AD0105 diluted 1:1000 in DELFIA assay buffer (AB). Preincubate antibody in the AB for 30 minutes at room temperature prior to use. (Primary and secondary antibodies were incubated together.)
1. Preblock wells with 5% milk in TBS for 1 hour.
2. Wash wells with 3× with 200 μL TBS.
3. Plate out 40 μL of DKB1 for all inhibitors (test compounds), DMSO control, and optionally other control compounds.
4. Plate out 40 μL of DKB2 for BO and EV wells.
5. Add inhibitors (test compounds) at 0.5 μL per well according to desired plate layout.
6. Add 0.5 μL DMSO to vehicle control wells.
7. Add 2 μL of B-RAF to BO and EV wells.
8. Pre-incubate with inhibitors (test compounds) for 10 minutes at room temperature with shaking.
9. Add 10 μL of 500 μM ATP stock, in DKB, to give 100 μM assay concentration.
10. Seal plates with TopSeal and incubate at room temperature with shaking for 45 minutes.
11. Wash plates 3× with 200 μL 0.1% Tween20/Water to terminate reaction.
12. Add 50 μL per well of antibody mix and incubate for 1 hour at room temperature with shaking.
13. Wash plates 3× with 200 μL 0.1% Tween20/Water.
14. Add 100 μL DELFIA enhancement solution per well, cover in foil, and incubate at room temperature for 30 minutes with shaking.
15. Read on Victor using Europium protocol.
(§1) Values for the blank (Empty Vector) are subtracted from all values. The DMSO controls are set as 100% activity and assay points (the response) are calculated as a percentage of the DMSO control. Data are plotted using Graphpad Prism software and a non-linear regression line is calculated using a variable slope sigmoidal dose-response equation (Y=Bottom+(Top−Bottom)/(1+10^((LogEC50−X)*HillSlope)) where X is the logarithm of concentration. Y is the response). The IC50 generated by this procedure is the concentration of the drug that produces a percentage control fluorescence value midway between the saturation, and zero-effect plateaus. Three independent assays are usually performed and the mean IC50 is reported.

pERK = assay: Cell Based Phospho-ERK Assay; conditions: 6 h, cells incubated with test compound for 6 hours
Method: Biological Methods—Cell Based Phosho-ERK Assay
Compounds were assessed using a cell-based assay which was performed according to the following protocol.
Plate out 16,000 cells/well in 99 μL medium in a 96-well plate.
1. Add 1 μL inhibitor to the cells […].
2. Incubate the cells with test compound for 6 hours at 37° C.
3. Aspirate off the solution from all of the wells.
4. Fixate the cells with 100 μL 4% formaldehyde/0.25% Triton X-100 PBS per well.
5. Incubate the plate for 1 hour at 4° C.
6. Aspirate off the fixing solution and add 300 μL TBS per well.
7. Leave the plate overnight at 4° C.
1. Wash the plate 2× with 200 μL PBS per well.
2. Block with 100 μL 5% dried milk in TBS.
3. Incubate the plate for 20 minutes at 37° C.
4. Wash the plate 2× with 0.1% tween/H2O.
5. Add 50 μL of 3 μg/mL primary antibody pERK (Sigma M8159), diluted in 5% milk powder/TBS, to each well.
6. Incubate the plate for 2 hours at 37° C.
7. Wash the plate 3× with 0.1% tween/H2O.
8. Add 50 μL of 0.45 μg/mL secondary Europium-labelled anti-mouse antibody (Perkin Elmer) to each well.
9. Incubate the plate for 1 hour at 37° C.
10. Wash the plate 3× with 0.1% tween/H2O.
11. Add 100 μL enhancement solution (Perkin Elmer) to each well.
12. Leave the plate for approximately 10 minutes at room temperature before gently shaking the plate.
13. Read Europium Time Resolved Fluorescence in Victor2.
14. Wash the plate 2× with 0.1% tween/H2O.
15. Measure the protein concentration with BCA (Sigma) by adding 200 μL of solution per well.
16. Incubate the plate for 30 minutes at 37° C.
17. Read absorbance levels at 570 nm in a plate reader.
Note that Europium counts are normalised for protein levels by dividing counts by absorbance.
as §1, with “(no cells)” for “(Empty Vector)”

B-RAF, sequence (P15056 whole entry V600E): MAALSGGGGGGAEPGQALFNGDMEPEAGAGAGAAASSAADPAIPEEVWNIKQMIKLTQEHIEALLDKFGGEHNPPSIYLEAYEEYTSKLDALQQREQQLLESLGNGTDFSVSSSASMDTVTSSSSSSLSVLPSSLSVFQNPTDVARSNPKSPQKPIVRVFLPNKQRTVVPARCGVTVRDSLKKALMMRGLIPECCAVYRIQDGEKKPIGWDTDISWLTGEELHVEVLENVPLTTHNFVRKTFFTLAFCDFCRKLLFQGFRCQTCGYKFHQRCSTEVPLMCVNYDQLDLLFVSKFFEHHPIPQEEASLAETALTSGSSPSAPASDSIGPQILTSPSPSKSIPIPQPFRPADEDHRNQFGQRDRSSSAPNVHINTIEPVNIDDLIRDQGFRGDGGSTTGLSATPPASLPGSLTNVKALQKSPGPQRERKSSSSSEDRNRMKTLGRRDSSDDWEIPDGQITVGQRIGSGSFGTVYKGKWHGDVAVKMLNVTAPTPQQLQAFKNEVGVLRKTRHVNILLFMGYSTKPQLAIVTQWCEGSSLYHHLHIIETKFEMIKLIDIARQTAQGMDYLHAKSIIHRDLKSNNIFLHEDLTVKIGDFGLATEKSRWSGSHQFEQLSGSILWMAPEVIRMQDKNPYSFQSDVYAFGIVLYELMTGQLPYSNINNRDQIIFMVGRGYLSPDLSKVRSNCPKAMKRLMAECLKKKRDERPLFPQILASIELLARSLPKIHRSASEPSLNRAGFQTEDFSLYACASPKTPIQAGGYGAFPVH

Structure (SMILES) | GI50 (WM266.4 melanoma cells) | pIC50 (B-RAF) | pIC50 (pERK)
O=C(Nc1cc(C(F)(F)F)ccc1F)Nc1ccc(Oc2ccnc3ncc(=O)[nH]c23)c2cccnc12 [BB-004, 5-[(8-Amino-quinolinyl-5-oxy)carbonylamino-5-(2-fluoro-5-trifluoromethyl-phenyl)]-pyridin-[2,3]pyrazin-3-one] | ≤ 10 µM | ≥ 6.00 | ≥ 5.00
O=C(Nc1cc(C(F)(F)F)ccc1F)Nc1ccc(Oc2ccnc3[nH]c(=O)cnc23)c2cccnc12 [BB-005, 5-[(8-Amino-quinolinyl-5-oxy)carbonylamino-5-(2-fluoro-5-trifluoromethyl-phenyl)]-pyridin-[2,3]pyrazin-2-one] | ≤ 10 µM | ≥ 6.00 | ≥ 5.00
Cc1nc2c(Oc3ccc(NC(=O)Nc4cc(C(C)(C)C)nn4C)c4ncccc34)ccnc2[nH]c1=O [BB-006, 5-[(8-Amino-quinolinyl-5-oxy)carbonylamino-5-(1-methyl-3-t-butyl-imidazolyl)]-pyridin-[2,3]-3-methylpyrazin-2-one] | ≤ 10 µM | ≥ 6.00 | ≥ 5.00
Cc1ccc(-n2nc(C(C)(C)C)cc2NC(=O)Nc2ccc(Oc3ccnc4[nH]c(=O)cnc34)c3cccnc23)cc1 [BB-007, 5-[(8-Amino-quinolinyl-5-oxy)carbonylamino-5-(1-N-p-tolyl-3-t-butyl-imidazolyl)]-pyridin-[2,3]pyrazin-2-one] | ≤ 10 µM | ≥ 6.00 | ≥ 5.00
CC(C)(C)c1cc(NC(=O)Nc2ccc(Oc3ccnc4[nH]c(=O)cnc34)c3cccnc23)n(-c2ccccc2)n1 [BB-008, 5-[(8-Amino-quinolinyl-5-oxy)carbonylamino-5-(1-N-phenyl-3-t-butyl-imidazolyl)]-pyridin-[2,3]pyrazin-2-one] | ≤ 10 µM | ≥ 6.00 | ≥ 5.00
C=CCn1nc(C(C)(C)C)cc1NC(=O)Nc1ccc(Oc2ccnc3[nH]c(=O)c(C)nc23)c2cccnc12 [BB-009] | ≤ 10 µM | ≥ 6.00 | ≥ 5.00
C#CCn1nc(C(C)(C)C)cc1NC(=O)Nc1ccc(Oc2ccnc3[nH]c(=O)c(C)nc23)c2cccnc12 [BB-011] | ≤ 10 µM | ≥ 6.00 | ≥ 5.00
C#CCn1nc(C(C)(C)C)cc1NC(=O)Nc1ccc(Oc2ccnc3[nH]c(=O)cnc23)c2cccnc12 [BB-012] | ≤ 10 µM | ≥ 6.00 | ≥ 5.00

Second part, the molecule after the results:

GI50 (WM266.4 melanoma cells) | pIC50 (B-RAF) | pIC50 (pERK) | Structure (SMILES)
≤ 10 µM | ≥ 6.00 | ≥ 5.00 | O=C(Nc1cc(C(F)(F)F)ccc1F)Nc1ccc(Oc2ccnc3[nH]c(=O)[nH]c23)c2cccnc12 [AA-010, 4-[(5-Oxy-quinolinyl-8-amino)carbonylamino-(2-fluoro-5-trifluoromethyl-phenyl)]-pyridin-5,6-imidazolone]
≤ 10 µM | ≥ 6.00 | ≥ 5.00 | Cn1c(=O)[nH]c2c(Oc3ccc(NC(=O)Nc4ccc(Cl)c(C(F)(F)F)c4)c4ncccc34)ccnc21 [AA-014, 5-[(8-Amino-quinolinyl-5-oxy)carbonylamino-3-(2-trifluoromethyl-3-chloro-phenyl)]-pyridin-[2,3]-N-methylimidazol-2-one]
≤ 10 µM | ≥ 6.00 | ≥ 5.00 | Cn1nc(C(C)(C)C)cc1NC(=O)Nc1ccc(Oc2ccnc3c2[nH]c(=O)n3C)c2cccnc12 [AA-017, 5-[(8-Amino-quinolinyl-5-oxy)carbonylamino-5-(1-methyl-3-t-butyl-imidazolyl)]-pyridin-[2,3]1-N-methylimidazol-2-one]
≤ 10 µM | ≥ 6.00 | ≥ 5.00 | Cn1c(=O)[nH]c2c(Oc3ccc(NC(=O)Nc4cccc(C(C)(C)C)c4)c4ncccc34)ccnc21 [AA-018, 5-[(8-Amino-quinolinyl-5-oxy)carbonylamino-3-(t-butyl-phenyl)]-pyridin-[2,3]1-N-methylimidazol-2-one]
≤ 10 µM | ≥ 6.00 | ≥ 5.00 | Cc1nc2c(Oc3ccc(NC(=O)Nc4cc(C(F)(F)F)ccc4F)c4ncccc34)ccnc2[nH]c1=O [BB-001, 5-[(8-Amino-quinolinyl-5-oxy)carbonylamino-(2-fluoro-5-trifloromethylphenyl)]-pyridin-[2,3]-3-methylpyrazin-2-one]
≤ 10 µM | ≥ 6.00 | ≥ 5.00 | Cc1nc2c(Oc3ccc(NC(=O)Nc4cc(C(C)(C)C)nn4-c4ccccc4)c4ncccc34)ccnc2[nH]c1=O [BB-003, 5-[(8-Amino-quinolinyl-5-oxy)carbonylamino-5-(1-N-p-phenyl-3-t-butyl-imidazolyl)]-pyridin-[2,3]-3-methylpyrazin-2-one]

Source: patent publication US8383816B2, “Aryl-quinolyl compounds and their use” (Cancer Research Technology Limited, priority 2008, dated 2013)
